ChEMBL document CHEMBL1201862, “PubChem BioAssay data set” (2004)
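Dose response: 5 concentrations. Exposure: 48 h. Format: 96-well plates. Endpoint: linear interpolation; highest concentration if not reached. Abbreviation: GI50, concentration required for 50% inhibition of growth.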 Activity calls are given as the source filed them. No stated cut-off is given here; in the data, active = GI50 up to about 1.1 µM and inactive = higher.

Key:
Assay in all cases: NCI tumour cell line growth inhibition, 48 h
SF-539 = test system: SF-539
NCI-H460 = test system: NCI-H460
CCRF-CEM = test system: CCRF-CEM
Malme-3M = test system: Malme-3M
T47D = test system: T47D
SK-MEL-28 = test system: SK-MEL-28
SK-OV-3 = test system: SK-OV-3
SK-MEL-2 = test system: SK-MEL-2
PC-3 = test system: PC-3
UACC-62 = test system: UACC-62
CAKI-1 = test system: CAKI-1
TK-10 = test system: TK-10
DU-145 = test system: DU-145
OVCAR-5 = test system: OVCAR-5
HOP-92 = test system: HOP-92
COLO 205 = test system: COLO 205
NCI-H226 = test system: NCI-H226
SW-620 = test system: SW-620
HOP-62 = test system: HOP-62
NCI-H522 = test system: NCI-H522
SF-295 = test system: SF-295
HCT-15 = test system: HCT-15
UO-31 = test system: UO-31
RPMI-8226 = test system: RPMI-8226
SK-MEL-5 = test system: SK-MEL-5
MDA-MB-231 = test system: MDA-MB-231
MCF7 = test system: MCF7
SNB-75 = test system: SNB-75
LOX IMVI = test system: LOX IMVI
ACHN = test system: ACHN
MDA-N = test system: MDA-N
SR = test system: SR
IGROV-1 = test system: IGROV-1
UACC-257 = test system: UACC-257
786-0 = test system: 786-0
A549 = test system: A549
M14 = test system: M14
U-251 = test system: U-251
HL-60 = test system: HL-60
OVCAR-3 = test system: OVCAR-3
OVCAR-4 = test system: OVCAR-4
SN12C = test system: SN12C
HT-29 = test system: HT-29
OVCAR-8 = test system: OVCAR-8
NCI-H23 = test system: NCI-H23
KM12 = test system: KM12
NCI/ADR-RES = test system: NCI/ADR-RES
SF-268 = test system: SF-268
EKVX = test system: EKVX
HCT-116 = test system: HCT-116
K562 = test system: K562
MOLT-4 = test system: MOLT-4
MDA-MB-435 = test system: MDA-MB-435
SNB-19 = test system: SNB-19
HCC 2998 = test system: HCC 2998
Hs-578T = test system: Hs-578T
RXF 393 = test system: RXF 393
A498 = test system: A498

CCC1(O)CC(OC2CC(N(C)C)C(OC3CC(O)C(OC4CCC(=O)C(C)O4)C(C)O3)C(C)O2)c2c(O)c3c(c(O)c2C1C(=O)OC)C(=O)c1cccc(O)c1C3=O (configuration not stated)
GI50 (SF-539): 0.0101 µM (active)
GI50 (NCI-H460): 0.000434 µM (active)
GI50 (CCRF-CEM): 0.00176 µM (active)
GI50 (Malme-3M): 0.0125 µM (active)
GI50 (T47D): 0.0154 µM (active)
GI50 (SK-MEL-28): 0.00995 µM (active)
GI50 (SK-OV-3): 0.00565 µM (active)
GI50 (SK-MEL-2): 0.0103 µM (active)
GI50 (PC-3): 0.00502 µM (active)
GI50 (UACC-62): 0.0101 µM (active)
GI50 (CAKI-1): 0.000267 µM (active)
GI50 (TK-10): 0.015 µM (active)
GI50 (DU-145): 0.00689 µM (active)
GI50 (OVCAR-5): 0.00575 µM (active)
GI50 (HOP-92): 0.0344 µM (active)
GI50 (COLO 205): 0.00327 µM (active)
GI50 (NCI-H226): 0.0126 µM (active)
GI50 (SW-620): 0.00171 µM (active)
GI50 (HOP-62): 0.0106 µM (active)
GI50 (NCI-H522): 0.00385 µM (active)
GI50 (SF-295): 0.00219 µM (active)
GI50 (HCT-15): 0.00719 µM
GI50 (UO-31): 0.00508 µM (active)
GI50 (RPMI-8226): 0.00181 µM (active)
GI50 (SK-MEL-5): 0.00405 µM (active)
GI50 (MDA-MB-231): 0.0181 µM (active)
GI50 (MCF7): 0.01 µM (active)
GI50 (SNB-75): 0.00881 µM (active)
GI50 (LOX IMVI): 0.00184 µM (active)
GI50 (ACHN): 0.00134 µM (active)
GI50 (MDA-N): 0.00482 µM (active)
GI50 (SR): 0.00897 µM (active)
GI50 (IGROV-1): 0.00178 µM (active)
GI50 (UACC-257): 0.0059 µM (active)
GI50 (786-0): 0.0016 µM (active)
GI50 (A549): 0.00339 µM (active)
GI50 (M14): 0.01 µM (active)
GI50 (U-251): 0.0028 µM (active)
GI50 (HL-60): 0.00586 µM (active)
GI50 (OVCAR-3): 0.0155 µM (active)
GI50 (OVCAR-4): 0.01 µM (active)
GI50 (SN12C): 0.00966 µM (active)
GI50 (HT-29): 0.00445 µM (active)
GI50 (OVCAR-8): 0.00174 µM (active)
GI50 (NCI-H23): 0.00589 µM (active)
GI50 (KM12): 0.00344 µM (active)
GI50 (NCI/ADR-RES): 0.0109 µM (active)
GI50 (SF-268): 0.0316 µM (active)
GI50 (EKVX): 0.012 µM (active)
GI50 (HCT-116): 0.000396 µM (active)
GI50 (K562): 0.000274 µM (active)
GI50 (MOLT-4): 0.00154 µM (active)
GI50 (MDA-MB-435): 0.0067 µM (active)
GI50 (SNB-19): 0.00457 µM (active)
GI50 (HCC 2998): 0.0172 µM (active)
GI50 (Hs-578T): 0.00221 µM (active)

Cc1ccc(S(=O)(=O)N2CCCSCC2)cc1
GI50 (RXF 393): 62.7 µM (inactive)
GI50 (NCI-H460): > 100 µM (inactive)
GI50 (CCRF-CEM): > 100 µM (inactive)
GI50 (T47D): > 100 µM (inactive)
GI50 (SK-MEL-28): > 100 µM (inactive)
GI50 (SK-OV-3): > 100 µM (inactive)
GI50 (PC-3): > 100 µM (inactive)
GI50 (TK-10): > 100 µM (inactive)
GI50 (DU-145): > 100 µM (inactive)
GI50 (HOP-92): > 100 µM (inactive)
GI50 (COLO 205): > 100 µM (inactive)
GI50 (NCI-H226): > 100 µM (inactive)
GI50 (SW-620): > 100 µM (inactive)
GI50 (NCI-H522): > 100 µM (inactive)
GI50 (SF-295): > 100 µM (inactive)
GI50 (HCT-15): > 100 µM
GI50 (UO-31): 35.2 µM (inactive)
GI50 (SK-MEL-5): > 100 µM (inactive)
GI50 (MDA-MB-231): > 100 µM (inactive)
GI50 (MCF7): > 100 µM (inactive)
GI50 (SNB-75): 61.7 µM (inactive)
GI50 (LOX IMVI): > 100 µM (inactive)
GI50 (ACHN): > 100 µM (inactive)
GI50 (MDA-N): > 100 µM (inactive)
GI50 (SR): > 100 µM (inactive)
GI50 (UACC-257): > 100 µM (inactive)
GI50 (A549): > 100 µM (inactive)
GI50 (U-251): > 100 µM (inactive)
GI50 (OVCAR-4): > 100 µM (inactive)
GI50 (SN12C): > 100 µM (inactive)
GI50 (HT-29): > 100 µM (inactive)
GI50 (OVCAR-8): > 100 µM (inactive)
GI50 (NCI-H23): > 100 µM (inactive)
GI50 (KM12): > 100 µM (inactive)
GI50 (NCI/ADR-RES): > 100 µM (inactive)
GI50 (SF-268): > 100 µM (inactive)
GI50 (HCT-116): > 100 µM (inactive)
GI50 (K562): > 100 µM (inactive)
GI50 (MOLT-4): > 100 µM (inactive)
GI50 (MDA-MB-435): 95.7 µM (inactive)
GI50 (SNB-19): > 100 µM (inactive)
GI50 (HCC 2998): > 100 µM (inactive)
GI50 (A498): > 100 µM (inactive)
GI50 (Hs-578T): 72.4 µM (inactive)

CN(C)c1ccc(/C=C/c2ccc(S(N)(=O)=O)cc2)cc1
GI50 (RXF 393): 20.7 µM (inactive)
GI50 (NCI-H460): 14.9 µM (inactive)
GI50 (Malme-3M): 14 µM (inactive)
GI50 (T47D): 27 µM (inactive)
GI50 (SK-MEL-28): 11.5 µM (inactive)
GI50 (SK-OV-3): 17 µM (inactive)
GI50 (SK-MEL-2): 28.2 µM (inactive)
GI50 (PC-3): 14.8 µM (inactive)
GI50 (TK-10): 20.5 µM (inactive)
GI50 (DU-145): 13.6 µM (inactive)
GI50 (OVCAR-5): 18 µM (inactive)
GI50 (COLO 205): 24.5 µM (inactive)
GI50 (SW-620): 11.1 µM (inactive)
GI50 (HOP-62): 18.7 µM (inactive)
GI50 (SF-295): 24.3 µM (inactive)
GI50 (UO-31): 17.7 µM (inactive)
GI50 (SK-MEL-5): 11.3 µM (inactive)
GI50 (MDA-MB-231): 13.5 µM (inactive)
GI50 (MCF7): 13.4 µM (inactive)
GI50 (SNB-75): 22.7 µM (inactive)
GI50 (MDA-N): 11.8 µM (inactive)
GI50 (UACC-257): 46.5 µM (inactive)
GI50 (786-0): 16.9 µM (inactive)
GI50 (M14): 15.8 µM (inactive)
GI50 (OVCAR-3): 20.4 µM (inactive)
GI50 (SN12C): 20.4 µM (inactive)
GI50 (NCI/ADR-RES): 14.8 µM (inactive)
GI50 (EKVX): 21.8 µM (inactive)
GI50 (HCT-116): 23.1 µM (inactive)
GI50 (SNB-19): 20.2 µM (inactive)
GI50 (HCC 2998): 34 µM (inactive)
GI50 (A498): 17.7 µM (inactive)
